Values quoted from earlier work, collected in paper PMC9686516, “Pharmacokinetic Characteristics of Nebulized Colistimethate Sodium Using Two Different Types of Nebulizers in Critically Ill Patients with Ventilator-Associated Respiratory Infections” (Antibiotics, 2022).
Where a SMILES comes first, the peptide text is derived from it. Bridges are numbered along the chain shown (N, C = ends). [ ]: non-standard residue; d: D form. The star is where a group is joined. X1 = CC[C@H](C)CCCCC(=O)*; Dab = NCC[C@H](N)C(=O)O

How the values were obtained:
[1] = cited from earlier work
Description: However, the ELF exposure was similar, despite the higher dose, probably due to a higher clearance from the lung compartment in our study, as evidenced by the ... || Contrarily, our results were only marginally compatible with the results of Boisson et al. and Gkoufa et al.. In the former study, the range of colistin concentration in the ELF following a 2 mIU inhalation spanned from 9.53 to 1137 mg/L [14], while it was between 0.8 mg/L and 57.9 mg/L in the present study. In the latter study, the exact values were not reported, however in the figured data it was shown that after an inhalation of 3 to 5 mIU of CMS, formed colistin concentrations were in the range of 10^2 to 10^3 mg/L [16]. Again, it is not known whether these differences we ...

Klebsiella pneumoniae = conditions: in vitro experiments, typical plasma maximum concentrations; cited from earlier work
Pseudomonas aeruginosa = conditions: animal thigh and lung infection models; cited from earlier work
Acinetobacter baumannii = conditions: animal thigh and lung infection models; cited from earlier work

Structure (SMILES): CC[C@H](C)CCCCC(=O)N[C@@H](CCN)C(=O)N[C@H](C(=O)N[C@@H](CCN)C(=O)N[C@H]1CCNC(=O)[C@H]([C@@H](C)O)NC(=O)[C@H](CCN)NC(=O)[C@H](CCN)NC(=O)[C@H](CC(C)C)NC(=O)[C@@H](CC(C)C)NC(=O)[C@H](CCN)NC1=O)[C@@H](C)O [colistin] (X1-[Dab]T[Dab][Dab][Dab][dL]L[Dab][Dab]T; lactam 4-C)
- median plasma Cmax ([1]; 1 mIU of CMS via VMN, ref 13 (Athanassa et al.)): 1600 ng/mL
- plasma concentrations ([1]; after inhaled CMS, generally): below 1 mg/L
- fAUC/MIC linked to 2-log killing (Klebsiella pneumoniae): 25
- fAUC/MIC predicting 1-log killing (Pseudomonas aeruginosa): 12.2–22.8
- fAUC/MIC predicting 1-log killing (Acinetobacter baumannii): 7–42
